From PMC12751141, “Disrupting α-Synuclein–ClpP interaction restores mitochondrial function and attenuates neuropathology in Parkinson’s disease models” (Molecular Neurodegeneration, 2025)
pKd: −log10 of the molar value.

Key:
[1] = molecular target: human recombinant αSyn pre-formed fibrils (PFF) (Type 1) (human); experiment: MST
FITC-αSyn (human) = FITC-αSyn (human) (UniProt P37840); experiment: MST
[2] = system: αSyn PFF-seeded aggregation; experiment: αSyn ThT assay, PFF-seeded aggregation with recombinant ClpP; format: biochemical, human; settings: ClpP 5/10 µM; αSyn PFF 1 µM; ThT 1 µM; PBS pH 7.4, 37 °C, 500 rpm, up to 48 h; ex 450 nm / em 485 nm; n = 4
Description: αSyn monomer (5µM) and PFF (1µM) were incubated with recombinant ClpP (5/10µM) and Thioflavin T (ThT) (1µM) in 100 µl PBS (pH 7.4) at 37 °C in a shaking incubator (500 rpm). ThT fluorescence was measured (excitation 450 nm, emission 485 nm) every 15 min up to 48 h.
Fig. 1 ClpP modulates αSyn tetramer and aggregates. […] (B) Western blot and quantification of αSyn tetramer/monomer ratio and oligomer/monomer ratio, upon intact cell DSG-crosslinking, in HEK293T cells overexpressing Myc-tagged WT αSyn with EV or Flag-tagged S153A-ClpP (n = 4–5, two-tailed Student’s t test). (C) Fluorescent images and quantification of αSyn aggregation in SH-SY5Y cells overexpressing EV or ClpP with vectors expressing Venus-N-αSyn (VN) and αSyn-C-Venus (VC) (n = 7, two-tailed Student’s t test, Scale bar = 10 μm). (D) Fluorescent images and quantification of αSyn aggregation in control knock-down (Consh) or ClpP knock-down (ClpPsh) SH-SY5Y cells overexpressing VN and VC (n = 4, two-tailed Student’s t test, Scale bar = 10 μm). (E) In vitro αSyn PFF (1µM) – seeded aggregation in the absence (control) or presence of ClpP (5/10µM) was monitored by thioflavin T (ThT) fluorescence (n = 4, two-tailed Student’s t test). […]

ClpP (SH-SY5Y cells) = experiment: ClpP protein level, western blot, SH-SY5Y cells; format: cell-based; settings: WT or A53T αSyn overexpression; 30 min pretreatment; n = 4–5 (CS1: n = 4)
αSyn–ClpP binding = experiment: Immunoprecipitation of recombinant ClpP and αSyn in vitro; parameters: species or system human; settings: recombinant ClpP pre-incubated with peptide 30 min before αSyn; anti-ClpP IP; 3 independent experiments
Description: The human recombinant WT- (#S-1001-2), A53T- (#S-1001-2), ΔNAC- (#S-1015-1) and ΔC- (#S-1012-1) αSyn and FITC-αSyn (S-1113-2) were purchased from rPeptide. The human recombinant αSyn pre-formed fibrils (PFF) (Type 1) (SPR-322) and ATTO-594-PFF (SPR-322B-A594) were purchased from StressMarq Biosciences (Bioactivity has been widely validated via various approaches, e.g. TEM, ThT).
(§1) Cells or tissues were lysed in total lysis buffer (50mM Tris-HCl, pH 7.5, 150mM NaCl, 1% Triton X-100, and protease inhibitor). Total protein lysates (800 µg) were incubated with the indicated antibodies overnight at 4 °C followed by the addition of protein A/G beads (sc-2003, Santa Cruz) for 2 h at 4 °C. Various recombinant αSyn and Clpp (500 ng) were incubated in in vitro interaction buffer (20mM Tris-HCl pH 7.5, 100mM KCl, 2mM MgCl2 and 0.1% Triton-X100) for 30 min at room temperature, and then incubated with indicated antibodies overnight at 4 °C followed by the addition of protein A/G beads for 2 h at 4 °C. The beads with immuno-precipitates were pulled down at 4000 g and washed four times with total lysis buffer/in vitro interaction buffer in the presence of 0.1% Triton X-100 and were analyzed by western blot analysis.

SH-SY5Y cells = experiment: Mitochondrial ROS (Mito-SOX) in SH-SY5Y cells; format: cell-based; settings: SH-SY5Y expressing VN/VC-αSyn (CS1: WT αSyn); Mito-SOX 5 µM; vs TAT
Description: Cells cultured on coverslips or 24-well plates were washed with DPBS and then incubated with 5 µM Mito-SOX™ Red (Invitrogen, M36008), a mitochondrial superoxide indicator, for 10 min at 37 °C. For cells cultured on coverslips, the images were visualized by microscope, and quantification of images was then carried out using NIH ImageJ software. At least 100 cells per group were counted in the analysis.
(§2) The bimolecular fluorescence was examined 24-hour after transfection (n = 3, one-way ANOVA with Tukey’s post-hoc test, scale bar = 30 μm). (D) Quantification of the concentration (ng/ml) of extracellular αSyn monomer and oligomer, and intracellular αSyn oligomer in Tet-inducible SH-SY5Y cells that were pre-treated with TAT or CS2 peptide 30-minute before adding doxycycline (Dox) to induce αSyn expression. The concentration of αSyn species was determined by ELISA (n = 4, one-way ANOVA with Tukey’s post-hoc test; data are mean ± SEM). (E) Representative images of Mito-SOX staining in SH-SY5Y cells that were pre-treated with TAT or CS2 peptide and transfected with split Venus-αSyn vectors. Mitochondrial ROS production was determined by Mito-SOX staining after 24-hour transfection (n = 4, two-tailed Student’s t test, scale bar = 30 μm).

[3] = system: αSyn oligomerization (VN/VC-αSyn), SH-SY5Y cells; experiment: BiFC split-Venus αSyn oligomerization in SH-SY5Y cells; format: cell-based
Source text: (§3) To construct truncated-αSyn plasmids, pcDNA3.1(-) was digested with BsteII and XbaI, and ΔN-, ΔC- and ΔNAC-αSyn was PCR-amplified using self-designed primers and inserted into the plasmid backbone. Cells were transfected with TransIT-2020 (Mirus Bio, LLC) following the manufacturer’s protocol.
as §2
The bimolecular fluorescence was examined 24-hour after the transfection and quantitated (n = 14 areas/group, one-way ANOVA with Tukey’s post-hoc test, data are mean ± SEM).

ClpP (HEK293T cells) = experiment: ClpP protein level, western blot, HEK293T cells; format: cell-based; settings: WT or A53T αSyn overexpression; 30 min pretreatment; n = 4–5 (CS1: n = 4)
ClpP–αSyn interaction = experiment: Co-immunoprecipitation of ClpP with αSyn constructs in HEK293T cell lysates; format: cell-based
Description: as §3, with “Myc-tagged WT- and A53T- αSyn, Myc-tagged ClpP, and Flag-tagged WT- and S153A- ClpP plasmids were self-constructed as previously described (Ref). To” for “To”
as §1
Shown are representative blots of 3 independent experiments. Quantification of the ratio of αSyn over ClpP (pull-down) (n = 4, two-tailed Student’s t test, data are mean ± SEM).

Decoy peptide CS2 (TAT-C6-GGVVTA) (from UniProt P04608 47-57)
pKd [1]: 5.40
pKd (FITC-αSyn (human)): 5.15

recombinant ClpP protein: human recombinant ClpP obtained from Dr. Aaron Schimmer
PFF-ThT fluorescence [2]: dose-dependent suppression of PFF-ThT fluorescence intensity

TAT-C6-GAVVTG [CS1, decoy peptide]
ClpP protein level, SH-SY5Y (ClpP (SH-SY5Y cells)): failed to restore ClpP expression
αSyn–ClpP binding, recombinant (αSyn–ClpP binding): no effect
mitochondrial ROS (Mito-SOX intensity) (SH-SY5Y cells): failed to restore ClpP expression (Fig. S4A and B), reduce αSyn oligomerization (Fig. S4C), or suppress ROS
BiFC signal / αSyn oligomerization ([3]; SH-SY5Y expressing VN/VC-αSyn, 24-hour after transfection): failed to restore ClpP expression (Fig. S4A and B), reduce αSyn oligomerization
αSyn aggregation, discussion summary ([3]; in vitro or in vivo): no effect, either in vitro or in vivo
ClpP protein level, HEK293T (ClpP (HEK293T cells)): failed to restore ClpP expression
ClpP binding to ΔC-αSyn (ClpP–αSyn interaction; HEK293T lysates, Flag-ClpP + Myc-ΔC-αSyn): not CS1, abolished the binding
ClpP binding to ΔN-αSyn (ClpP–αSyn interaction; HEK293T lysates, Flag-ClpP + Myc-ΔN-αSyn): not CS1, abolished the binding
ClpP binding to WT-αSyn (ClpP–αSyn interaction; HEK293T lysates, WT αSyn, CS2: 24-hour treatment): not CS1, abolished the binding
αSyn-ClpP interaction, discussion summary (ClpP–αSyn interaction; in vitro or in vivo): no effect, either in vitro or in vivo
